Results taken from US20240109865A1, “INDAZOLE COMPOUNDS AS KINASE INHIBITORS” (TYRA BIOSCIENCES, INC., priority 2020, published 2024).
Structures can show the parent of a compound that is named as a salt.

Tests used:
[1] = tested on: KG-1 cells (FGFR1-fusion); assay: KG-1 cancer cell line cell viability assay (CellTiter-Glo 2.0); format: cell-based; settings: Homo sapiens, 72 hours, Cell Titer Glo 2.0
From the text: (§1) Experimental Purpose: To detect the change of intracellular ATP by Cell Titer-Glo® and to evaluate the inhibitory effect of the compounds on cancer cell lines by determining the in vitro IC50 value of the compounds.
(§2) Cell Titer-Glo® 2.0 Luminescent cell viability assay reagent was purchased from Promega (Madison, WI). RT112/84 and KG-1 cell lines were purchased from American Type Culture Collection (Manassas, VA). UM-UC-14 cell line was purchased from Sigma (St. Louis, MO). RT112/84, UM-UC-14, and KG-1 cells were cultured in RPMI1640 media supplemented with 10% fetal bovine serum. Cultures were maintained at 37° C. in a humidified atmosphere of 5% C02 and 95% air.
(§3) Cell Viability Assay Procedure: Cells were plated in 96-well clear bottom/white plates (Corning #3903) at 10,000 cells/well in 100 μl of media, incubated overnight. The next day, test compound DMSO stock solutions were made at 10 mM and 2 μM final concentration. Compounds were then added to cells in a 9-dose, 10-fold dilution series starting at 30 μM with an HP 300e Digital Dispenser (each dose was applied in triplicate). DMSO was backfilled to each well up to 301 nL total volume of test compound+DMSO, and a total of 301 nL DMSO was added to a control/no test compound well in triplicate. The cells in cell culture plates were incubated with the compounds at 37° C. and 5% C02 for 72 hours. Then 50 μl of Cell Titer Glo 2.0 reagent was added to each well of the cell culture plates. The contents were covered from light and mixed on an orbital shaker at room temperature for 10 min. Luminescence was recorded by a Synergy H1 Microplate Reader (Biotek, Winooski, VT). Cells were assessed as a percentage of DMSO only treated control cells. Curves were plotted and IC50 values were calculated using the GraphPad Prism 8 program based on a sigmoidal dose-response equation (4 parameter).

[2] = biological target: FGFR3-BAIAP2L1 Ba/F3 cells (Homo sapiens, UniProt P22607); assay: Ba/F3 cell viability assay (CellTiter-Glo 2.0), FGFR3-BAIAP2L1 Ba/F3; format: cell-based; settings: for Ba/F3 FGFR1/FGFR3 Selectivity: FGFR3 > FGFR1 selectivity ratio in Ba/F3 FGFR fusion cell based assays; for IC50: read-out: Ba/F3 Cells FGFR3 (IC50 nM), FGFR3-BAIAP2L1 Ba/F3 cells, 48 hours, Cell Titer Glo 2.0
Summary of the method: (§4)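 IL3-independent Ba/F3 lines driven by FGFR1-BCR or FGFR3-BAIAP2L1 fusions, in RPMI1640/10% FBS. 9-dose 10-fold series from 30 μM, triplicate, 48 h at 37 °C; viability by CellTiter-Glo 2.0 ATP luminescence relative to DMSO control, IC50 from 4-parameter sigmoidal fit.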

[3] = tested on: UM-UC-14 cells (FGFR3(S249C)); assay: UM-UC-14 cancer cell line cell viability assay (CellTiter-Glo 2.0); format: cell-based; settings: UMUC14, 72 hours, Cell Titer Glo 2.0
From the text: as §1, §2, §3

FGFR1-BCR Ba/F3 cells = FGFR1-BCR Ba/F3 cells (Homo sapiens, UniProt P11362); assay: Ba/F3 cell viability assay (CellTiter-Glo 2.0), FGFR1-BCR Ba/F3; format: cell-based; settings: read-out: Ba/F3 Cells FGFR1 (IC50 nM), 48 hours, Cell Titer Glo 2.0
Summary of the method: as §4

[4] = tested on: RT112/84 cells (FGFR3-fusion); assay: RT112/84 cancer cell line cell viability assay (CellTiter-Glo 2.0); format: cell-based; settings: Homo sapiens, 72 hours, Cell Titer Glo 2.0
From the text: as §1, §2, §3

FGFR4 = FGFR4 (Homo sapiens (Human), UniProt P22455); assay: Kinase assay, binding constants (Kd), kinase-tagged T7 phage, qPCR
Summary of the method: (§5)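 Competition binding: kinase-tagged T7 phage lysates mixed with immobilized biotinylated ligand on streptavidin beads plus compound (11-point 3-fold dilution series, 0.9% DMSO final). Bound kinase eluted with free ligand and quantified by qPCR. Kd from Hill equation fit, slope fixed at −1.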

FGFR1 = FGFR1 (Homo sapiens (Human), UniProt P11362); assay: as above
Summary of the method: as §5

FGFR3 = FGFR3 (Homo sapiens (Human), UniProt P22607); assay: as above
Summary of the method: as §5

FGFR2 = FGFR2 (Homo sapiens (Human), UniProt P21802); assay: as above
Summary of the method: as §5

FGFR3 (V555M) = FGFR3 (V555M) (Homo sapiens (Human), UniProt P22607, V555M); assay: as above; settings: V555M mutant
Summary of the method: as §5

FGFR3, sequence (P22607 23-806): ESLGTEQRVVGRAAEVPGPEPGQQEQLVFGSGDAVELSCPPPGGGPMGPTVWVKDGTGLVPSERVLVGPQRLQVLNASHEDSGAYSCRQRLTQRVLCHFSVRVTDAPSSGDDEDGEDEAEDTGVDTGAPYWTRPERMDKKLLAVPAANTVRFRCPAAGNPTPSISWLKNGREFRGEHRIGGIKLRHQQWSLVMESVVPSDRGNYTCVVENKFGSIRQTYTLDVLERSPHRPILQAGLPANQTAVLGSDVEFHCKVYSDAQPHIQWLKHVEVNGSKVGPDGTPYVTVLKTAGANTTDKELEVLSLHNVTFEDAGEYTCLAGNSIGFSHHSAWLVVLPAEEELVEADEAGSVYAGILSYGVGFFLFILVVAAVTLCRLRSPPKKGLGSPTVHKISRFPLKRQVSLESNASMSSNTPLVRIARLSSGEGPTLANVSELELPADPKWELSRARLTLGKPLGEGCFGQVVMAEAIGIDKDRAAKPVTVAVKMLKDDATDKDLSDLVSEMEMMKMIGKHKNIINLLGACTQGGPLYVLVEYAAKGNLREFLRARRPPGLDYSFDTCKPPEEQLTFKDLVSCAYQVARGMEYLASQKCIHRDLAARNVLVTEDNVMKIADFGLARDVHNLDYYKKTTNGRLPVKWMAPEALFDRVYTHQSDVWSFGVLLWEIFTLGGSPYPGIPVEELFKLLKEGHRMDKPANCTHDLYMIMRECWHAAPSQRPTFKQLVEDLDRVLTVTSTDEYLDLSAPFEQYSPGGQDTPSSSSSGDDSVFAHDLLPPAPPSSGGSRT
FGFR3-BAIAP2L1 Ba/F3 cells, sequence (P22607 23-806 limits assumed, change not shown): as the sequence (P22607 23-806) above
FGFR2, sequence (P21802 22-821): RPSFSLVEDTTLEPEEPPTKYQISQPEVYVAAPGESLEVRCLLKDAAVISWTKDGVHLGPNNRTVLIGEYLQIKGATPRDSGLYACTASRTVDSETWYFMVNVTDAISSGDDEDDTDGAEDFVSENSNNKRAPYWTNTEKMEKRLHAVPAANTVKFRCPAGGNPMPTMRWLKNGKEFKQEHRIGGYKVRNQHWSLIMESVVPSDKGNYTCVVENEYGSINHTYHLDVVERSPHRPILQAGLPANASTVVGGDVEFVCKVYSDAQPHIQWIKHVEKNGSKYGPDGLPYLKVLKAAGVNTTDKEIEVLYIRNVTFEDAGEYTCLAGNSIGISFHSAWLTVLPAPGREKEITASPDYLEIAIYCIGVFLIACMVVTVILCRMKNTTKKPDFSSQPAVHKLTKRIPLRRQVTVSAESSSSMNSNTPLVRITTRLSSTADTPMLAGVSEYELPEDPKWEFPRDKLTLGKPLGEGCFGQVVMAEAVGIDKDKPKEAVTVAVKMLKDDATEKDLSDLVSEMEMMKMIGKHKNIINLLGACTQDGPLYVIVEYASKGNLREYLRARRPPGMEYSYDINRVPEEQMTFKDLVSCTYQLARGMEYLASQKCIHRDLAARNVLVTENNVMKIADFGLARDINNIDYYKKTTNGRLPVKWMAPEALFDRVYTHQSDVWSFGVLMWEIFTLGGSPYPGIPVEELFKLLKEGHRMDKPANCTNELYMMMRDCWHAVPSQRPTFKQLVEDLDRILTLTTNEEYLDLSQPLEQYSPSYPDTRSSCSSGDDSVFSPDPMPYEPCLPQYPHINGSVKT
FGFR3 (V555M), sequence (P22607 23-806 V555M): as the sequence (P22607 23-806) above, with V533M counted along it
FGFR4, sequence (P22455 22-802): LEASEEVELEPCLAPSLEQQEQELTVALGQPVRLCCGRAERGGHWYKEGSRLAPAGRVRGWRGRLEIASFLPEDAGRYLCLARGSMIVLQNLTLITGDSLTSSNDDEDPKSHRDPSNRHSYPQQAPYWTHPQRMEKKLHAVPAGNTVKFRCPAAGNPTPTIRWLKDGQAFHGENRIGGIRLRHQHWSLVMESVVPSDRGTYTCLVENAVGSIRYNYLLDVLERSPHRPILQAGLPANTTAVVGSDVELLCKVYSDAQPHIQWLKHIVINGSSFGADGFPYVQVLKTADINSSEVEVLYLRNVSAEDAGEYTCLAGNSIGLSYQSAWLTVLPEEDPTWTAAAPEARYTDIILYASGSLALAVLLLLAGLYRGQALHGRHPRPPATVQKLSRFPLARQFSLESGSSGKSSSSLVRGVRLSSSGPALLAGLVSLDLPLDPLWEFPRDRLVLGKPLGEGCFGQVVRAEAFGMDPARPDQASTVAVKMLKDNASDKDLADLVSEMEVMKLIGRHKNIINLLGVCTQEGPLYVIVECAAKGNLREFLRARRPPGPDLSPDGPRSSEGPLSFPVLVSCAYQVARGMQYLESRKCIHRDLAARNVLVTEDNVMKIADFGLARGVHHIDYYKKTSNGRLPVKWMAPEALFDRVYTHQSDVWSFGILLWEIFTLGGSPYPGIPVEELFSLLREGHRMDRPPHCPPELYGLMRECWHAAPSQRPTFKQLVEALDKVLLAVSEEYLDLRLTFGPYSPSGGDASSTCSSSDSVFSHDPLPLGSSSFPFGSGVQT
FGFR1, sequence (P11362 22-822): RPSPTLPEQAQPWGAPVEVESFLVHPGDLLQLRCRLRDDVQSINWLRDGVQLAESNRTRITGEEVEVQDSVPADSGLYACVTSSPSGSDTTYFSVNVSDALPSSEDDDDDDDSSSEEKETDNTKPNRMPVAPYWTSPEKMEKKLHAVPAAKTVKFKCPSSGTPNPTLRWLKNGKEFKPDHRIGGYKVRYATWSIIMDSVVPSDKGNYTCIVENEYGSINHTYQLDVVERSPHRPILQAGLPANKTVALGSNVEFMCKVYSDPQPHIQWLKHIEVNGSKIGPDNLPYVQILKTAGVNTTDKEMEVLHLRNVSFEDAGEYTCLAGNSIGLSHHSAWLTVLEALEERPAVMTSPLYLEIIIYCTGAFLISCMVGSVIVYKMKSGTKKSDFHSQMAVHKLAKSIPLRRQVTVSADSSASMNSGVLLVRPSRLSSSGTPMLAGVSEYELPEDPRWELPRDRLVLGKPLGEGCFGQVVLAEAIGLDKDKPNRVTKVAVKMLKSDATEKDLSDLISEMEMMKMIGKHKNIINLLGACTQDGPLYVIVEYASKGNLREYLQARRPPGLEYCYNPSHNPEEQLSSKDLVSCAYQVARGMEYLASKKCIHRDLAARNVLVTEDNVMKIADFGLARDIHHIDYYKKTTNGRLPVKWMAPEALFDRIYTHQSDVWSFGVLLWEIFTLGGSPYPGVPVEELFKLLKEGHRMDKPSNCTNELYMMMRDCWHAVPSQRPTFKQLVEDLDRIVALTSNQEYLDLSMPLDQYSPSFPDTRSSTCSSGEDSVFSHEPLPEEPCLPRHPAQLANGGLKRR
FGFR1-BCR Ba/F3 cells, sequence (P11362 22-822 limits assumed, change not shown): as the sequence (P11362 22-822) above

SMILES | IC50 [1] | Ba/F3 FGFR1/FGFR3 Selectivity [2] | IC50 [2] | IC50 [3] | IC50 (FGFR1-BCR Ba/F3 cells) | IC50 [4] | Kd (FGFR4) | Kd (FGFR1) | Kd (FGFR3) | Kd (FGFR2) | Kd (FGFR3 (V555M))
C[C@@H](Oc1ccc2[nH]nc(-c3ccc(N4CCS(=O)(=O)CC4)nc3)c2c1)c1c(Cl)cncc1Cl [Example 1, 4-[5-[5-[(1R)-1-(3,5-dichloro-4-pyridyl)ethoxy]-1H-indazol-3-yl]-2-pyridyl]-1,4-thiazinane 1,1-dioxide] | 100 to 300 nM | 33 | 1 to 20 nM | 1 to 20 nM | 100 to 300 nM | 1 to 20 nM | 1 to 20 nM | 1 to 20 nM | 1 to 20 nM | 1 to 20 nM | 1 to 20 nM
C[C@@H](Oc1ccc2[nH]nc(-c3ccc(N4CCNCC4)nc3)c2c1)c1c(Cl)cncc1Cl [Example 2, (R)-5-(1-(3,5-Dichloropyridin-4-yl)ethoxy)-3-(6-(piperazin-1-yl)pyridin-3-yl)-1H-indazole dihydrochloride] |  | 15 | 1 to 20 nM | 1 to 20 nM | 100 to 300 nM |  | 1 to 20 nM | 1 to 20 nM | 1 to 20 nM | 1 to 20 nM | 1 to 20 nM
C[C@@H](Oc1ccc2[nH]nc(-c3ccc(N4CCN(C(=O)N5CCOCC5)CC4)nc3)c2c1)c1c(Cl)cncc1Cl [Example 3, [4-[5-[5-[(1R)-1-(3,5-dichloro-4-pyridyl)ethoxy]-1H-indazol-3-yl]-2-pyridyl]piperazin-1-yl]-morpholino-methanone] | 20 to 100 nM | 18 | 1 to 20 nM | 1 to 20 nM | 20 to 100 nM | 1 to 20 nM | 1 to 20 nM | 1 to 20 nM | 1 to 20 nM | 1 to 20 nM | 1 to 20 nM
C[C@@H](Oc1ccc2[nH]nc(-c3ccc(N4CC5(CCS(=O)(=O)C5)C4)nc3)c2c1)c1c(Cl)cncc1Cl [Example 117, 2-[5-[5-[(1R)-1-(3,5-dichloro-4-pyridyl)ethoxy]-1H-indazol-3-yl]-2-pyridyl]-6λ^6-thia-2-azaspiro[3.4]octane 6,6-dioxide] | 20 to 100 nM | 15 | 1 to 20 nM |  | 20 to 100 nM | 1 to 20 nM | 1 to 20 nM | 1 to 20 nM | 1 to 20 nM | 1 to 20 nM | 1 to 20 nM
C[C@@H](Oc1ccc2[nH]nc(-c3cnc(N4CC5(C4)CN(S(C)(=O)=O)C5)nc3)c2c1)c1c(Cl)cncc1Cl [Example 119, 5-[(1R)-1-(3,5-dichloro-4-pyridyl)ethoxy]-3-[2-(2-methylsulfonyl-2,6-diazaspiro[3.3]heptan-6-yl)pyrimidin-5-yl]-1H-indazole] | 100 to 300 nM | 9 | 1 to 20 nM |  | 20 to 100 nM | 20 to 100 nM | 1 to 20 nM | 20 to 100 nM | 1 to 20 nM | 20 to 100 nM | 1 to 20 nM
CC(C)S(=O)(=O)N1CC2(CN(c3ncc(-c4n[nH]c5ccc(O[C@H](C)c6c(Cl)cncc6Cl)cc45)cn3)C2)C1 [Example 120, 5-[(1R)-1-(3,5-dichloro-4-pyridyl)ethoxy]-3-[2-(2-isopropylsulfonyl-2,6-diazaspiro[3.3]heptan-6-yl)pyrimidin-5-yl]-1H-indazole] | > 300 nM | 7 | 20 to 100 nM |  | 100 to 300 nM | 20 to 100 nM | 1 to 20 nM | 20 to 100 nM | 1 to 20 nM | 20 to 100 nM | 1 to 20 nM
